According to ChEMBL document CHEMBL1201862, “PubChem BioAssay data set” (2004):
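Each compound was tested at five concentrations against cells in 96-well plates for 48 hours. GI50 is the concentration that inhibits growth by half.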 Activity calls are given as the source filed them. Rule as the data show it: active = GI50 up to about 1.1 µM and inactive = higher.

Key:
Experiment in all cases: inhibition of tumour cell growth, NCI panel, 48 h
SF-539 = tested on: SF-539
MDA-N = tested on: MDA-N
RPMI-8226 = tested on: RPMI-8226
HOP-62 = tested on: HOP-62
A498 = tested on: A498
MDA-MB-435 = tested on: MDA-MB-435
COLO 205 = tested on: COLO 205
OVCAR-4 = tested on: OVCAR-4
DU-145 = tested on: DU-145
SF-268 = tested on: SF-268
UACC-257 = tested on: UACC-257
MOLT-4 = tested on: MOLT-4
PC-3 = tested on: PC-3
DLD-1 = tested on: DLD-1
EKVX = tested on: EKVX
K562 = tested on: K562
SK-MEL-2 = tested on: SK-MEL-2
SK-MEL-28 = tested on: SK-MEL-28
SF-295 = tested on: SF-295
SNB-75 = tested on: SNB-75

Row | SMILES | GI50 (SF-539) | GI50 (MDA-N) | GI50 (RPMI-8226) | GI50 (HOP-62) | GI50 (A498) | GI50 (MDA-MB-435) | GI50 (COLO 205) | GI50 (OVCAR-4) | GI50 (DU-145) | GI50 (SF-268) | GI50 (UACC-257) | GI50 (MOLT-4) | GI50 (PC-3) | GI50 (DLD-1) | GI50 (EKVX) | GI50 (K562) | GI50 (SK-MEL-2) | GI50 (SK-MEL-28) | GI50 (SF-295) | GI50 (SNB-75)
1 | Brc1ccccc1/C=N\C12CC3CC(CC(C3)C1)C2 | 15.5 µM (inactive) | 3.38 µM (inactive) | 3.31 µM (inactive) | > 81.8 µM (inactive) | > 100 µM (inactive) | 8.47 µM (inactive) | > 100 µM (inactive) | > 100 µM (inactive) | > 100 µM (inactive) | 99.1 µM (inactive) | > 79.4 µM (inactive) | 4.75 µM (inactive) | 43.2 µM (inactive) | 1.41 µM (inactive) | > 100 µM (inactive) | 1.02 µM (active) | > 81.3 µM (inactive) | > 100 µM (inactive) | 63.8 µM (inactive) | 38.2 µM (inactive)
2 | CCCNCCCCC(NC(C)=O)C(=O)NCc1ccccc1 (configuration not stated) | > 100 µM (inactive) |  | > 100 µM (inactive) | > 100 µM (inactive) | > 100 µM (inactive) |  | > 100 µM (inactive) | > 100 µM (inactive) |  | > 100 µM (inactive) | > 100 µM (inactive) | > 100 µM (inactive) |  | > 100 µM (inactive) | > 100 µM (inactive) | > 100 µM (inactive) | > 100 µM (inactive) | > 100 µM (inactive) | > 100 µM (inactive) | 25.2 µM (inactive)
3 | CC(=O)c1ccc(-c2ccc(C(C)=O)s2)s1 | > 100 µM (inactive) |  | > 100 µM (inactive) | > 100 µM (inactive) | 1.94 µM (inactive) |  | > 100 µM (inactive) | > 100 µM (inactive) |  | 1.87 µM (inactive) | > 100 µM (inactive) | > 100 µM (inactive) |  | > 100 µM (inactive) | > 100 µM (inactive) | > 100 µM (inactive) | > 100 µM (inactive) | 1.81 µM (inactive) | > 100 µM (inactive) | > 100 µM (inactive)
